Values of other authors, collected in US20050123576A1, “Mupirocin compositions for topical use, an improved process of making same and methods of using same” (priority 2003, published 2005).

Legend:
[1] = glycerol, mineral oil, caprylic-capric triglyceride, isopropyl myristate, isopropyl palmitate, octyl dodecanol (Eutanol G), isopropyl stearate
[2] = in the presence of water, acids and bases

- solubility in pharmaceutically acceptable carriers [1]: insoluble
- stability (hydrolysis and rearrangement reactions) [2]: unstable
Compound: C/C(=C\C(=O)OCCCCCCCCC(=O)O)C[C@@H]1OC[C@H](C[C@@H]2O[C@H]2[C@@H](C)[C@H](C)O)[C@@H](O)[C@H]1O [Mupirocin]
